According to the supplement of paper PMC5908809:

How the values were obtained:
[1] = system: normal NK cells expanded with K562-aAPC; test: drug sensitivity score (DSS) (DSS units); higher = more sensitive; extreme values may be limits of the assay; conditions: 72 h; IL-2 2.5 ng/mL
Procedure: (§1)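 Drug sensitivity and resistance testing on K562-aAPC-expanded normal NK cells: 5 concentrations (10-fold steps over a 10,000-fold range), 72 h at 37 °C, viability by CellTiter-Glo normalised to DMSO and benzethonium chloride controls; DSS from the fitted curve.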

[2] = system: normal NK cells expanded with K562-aAPC; test: percent inhibition of viability; higher = more inhibition; conditions: 72 h, IL-2 2.5 ng/mL
Procedure: as §1

[3] = system: normal primary NK cells, pool 1 (3 donors), resting (IL-2 0 ng/mL); test: as above; conditions: 72 h
[4] = system: normal primary NK cells, pool 2 (3 donors) (IL-2 2.5 ng/mL); test: as above; conditions: 72 h
KAI3 (IL-2 2.5 ng/mL) [5] = test: as above; conditions: 72 h
KHYG-1 (IL-2 2.5 ng/mL) [6] = test: as above; conditions: 72 h
NKL (IL-2 2.5 ng/mL) [7] = test: as above; conditions: 72 h
YT (IL-2 2.5 ng/mL) [8] = test: as above; conditions: 72 h
IMC-1 (IL-2 20 ng/mL) [9] = test: as above; conditions: 72 h
DERL-7 (IL-2 2.5 ng/mL) [10] = test: as above; conditions: 72 h
NK-92 (IL-2 2.5 ng/mL) [11] = test: as above; conditions: 72 h
[12] = system: normal primary NK cells, pool 3 (3 donors) (IL-2 2.5 ng/mL); test: as above; conditions: 72 h
NK-YS (IL-2 2.5 ng/mL) [13] = test: as above; conditions: 72 h
[14] = system: normal primary NK cells, pool 1 (3 donors) (IL-2 2.5 ng/mL); test: as above; conditions: 72 h
SNK-6 (IL-2 2.5 ng/mL) [15] = test: as above; conditions: 72 h
[16] = system: normal primary NK cells, pool 1 (3 donors), resting (IL-2 0 ng/mL); test: drug sensitivity score (DSS) (DSS units); higher = more sensitive; extreme values may be limits of the assay; conditions: 72 h
[17] = system: normal primary NK cells, pool 2 (3 donors) (IL-2 2.5 ng/mL); test: as above; conditions: 72 h
KAI3 (IL-2 2.5 ng/mL) [18] = test: as above; conditions: 72 h
KHYG-1 (IL-2 2.5 ng/mL) [19] = test: as above; conditions: 72 h
NKL (IL-2 2.5 ng/mL) [20] = test: as above; conditions: 72 h
YT (IL-2 2.5 ng/mL) [21] = test: as above; conditions: 72 h
IMC-1 (IL-2 20 ng/mL) [22] = test: as above; conditions: 72 h
DERL-7 (IL-2 2.5 ng/mL) [23] = test: as above; conditions: 72 h
NK-92 (IL-2 2.5 ng/mL) [24] = test: as above; conditions: 72 h
[25] = system: normal primary NK cells, pool 3 (3 donors) (IL-2 2.5 ng/mL); test: as above; conditions: 72 h
NK-YS (IL-2 2.5 ng/mL) [26] = test: as above; conditions: 72 h
[27] = system: normal primary NK cells, pool 1 (3 donors) (IL-2 2.5 ng/mL); test: as above; conditions: 72 h
SNK-6 (IL-2 2.5 ng/mL) [28] = test: as above; conditions: 72 h

C=CCNC1=C2C[C@@H](C)C[C@H](OC)[C@H](O)[C@@H](C)/C=C(\C)[C@H](OC(N)=O)[C@@H](OC)/C=C\C=C(/C)C(=O)NC(=CC1=O)C2=O [Tanespimycin] (max concentration tested 10000 nM)
Conditions | drug sensitivity score
DERL-7 (IL-2 2.5 ng/mL) [23] | 23
IMC-1 (IL-2 20 ng/mL) [22] | 18.4
KAI3 (IL-2 2.5 ng/mL) [18] | 25.3
KHYG-1 (IL-2 2.5 ng/mL) [19] | 19.3
NK-92 (IL-2 2.5 ng/mL) [24] | 23.1
NK-YS (IL-2 2.5 ng/mL) [26] | 25.4
NKL (IL-2 2.5 ng/mL) [20] | 25
SNK-6 (IL-2 2.5 ng/mL) [28] | 21.6
YT (IL-2 2.5 ng/mL) [21] | 19.1
[1] | 22.6
[16] | 14
[17] | 19.2
[25] | 16
[27] | 22.4

percent inhibition of viability [%]
Conditions | 1 nM | 10 nM | 100 nM | 1000 nM | 10000 nM
DERL-7 (IL-2 2.5 ng/mL) [10] | 0.9 | -1.85 | 35.9 | 101 | 101
IMC-1 (IL-2 20 ng/mL) [9] | -1.67 | 0.76 | 3.61 | 99.8 | 101
KAI3 (IL-2 2.5 ng/mL) [5] | 0.55 | 5.14 | 60.9 | 104 | 105
KHYG-1 (IL-2 2.5 ng/mL) [6] | -4.47 | 0.32 | 7.33 | 103 | 106
NK-92 (IL-2 2.5 ng/mL) [11] | -11.8 | -0.27 | 37.7 | 99.1 | 100
NK-YS (IL-2 2.5 ng/mL) [13] | -3.46 | -0.46 | 63.4 | 103 | 105
NKL (IL-2 2.5 ng/mL) [7] | -8.98 | -11.1 | 73.2 | 91.9 | 91.2
SNK-6 (IL-2 2.5 ng/mL) [15] | 3.74 | -19.1 | 41.6 | 87.7 | 89.8
YT (IL-2 2.5 ng/mL) [8] | -5.76 | -8.38 | 13.2 | 94.7 | 101
[2] | -6.12 | -2.4 | 32.3 | 99.3 | 100
[3] | -6.62 | 18.1 | 28.8 | 51.2 | 69.4
[4] | -2.56 | 2.25 | 36.4 | 80 | 85.7
[12] | -2.89 | -1.44 | 15.4 | 76.7 | 89.1
[14] | 1.58 | 12.9 | 49.5 | 87.4 | 92.3

CNC(=O)c1cc(COc2nnc(Nc3ccc(Cl)cc3)c3ccoc23)ccn1 [Telatinib] (max concentration tested 10000 nM)
Conditions | drug sensitivity score
DERL-7 (IL-2 2.5 ng/mL) [23] | 1
IMC-1 (IL-2 20 ng/mL) [22] | 0.48
KAI3 (IL-2 2.5 ng/mL) [18] | 0.91
KHYG-1 (IL-2 2.5 ng/mL) [19] | 0.8
NK-92 (IL-2 2.5 ng/mL) [24] | 1.85
NK-YS (IL-2 2.5 ng/mL) [26] | 0.7
NKL (IL-2 2.5 ng/mL) [20] | 7.2
SNK-6 (IL-2 2.5 ng/mL) [28] | 1.33
YT (IL-2 2.5 ng/mL) [21] | 0
[1] | 0.23
[16] | 0
[17] | 0
[25] | 0
[27] | 0

percent inhibition of viability [%]
Conditions | 1 nM | 10 nM | 100 nM | 1000 nM | 10000 nM
DERL-7 (IL-2 2.5 ng/mL) [10] | -7.49 | -0.52 | -1.32 | 7.55 | 16.5
IMC-1 (IL-2 20 ng/mL) [9] | -1.29 | 6.77 | 10.7 | 6.73 | 6.92
KAI3 (IL-2 2.5 ng/mL) [5] | -1.15 | -3.17 | -1.98 | 4.4 | 17.6
KHYG-1 (IL-2 2.5 ng/mL) [6] | -4.25 | 1.6 | 0.07 | 3.62 | 17.2
NK-92 (IL-2 2.5 ng/mL) [11] | -14.3 | 7.86 | 8.96 | 9.44 | 25.7
NK-YS (IL-2 2.5 ng/mL) [13] | -3.24 | -3.74 | 3.78 | 6.85 | 18
NKL (IL-2 2.5 ng/mL) [7] | 4.45 | 8.77 | 17.6 | 24.9 | 37.5
SNK-6 (IL-2 2.5 ng/mL) [15] | -6.76 | -18.2 | -10.9 | -17.2 | 39.8
YT (IL-2 2.5 ng/mL) [8] | -6.03 | -1.57 | 0.93 | 8.01 | 8.35
[2] | -1.26 | -3.44 | 0.95 | 10.9 | 8.85
[3] | -33.8 | -3.86 | 0.16 | -3.05 | 3.2
[4] | -8.51 | 7.4 | 6.24 | -6.6 | -0.18
[12] | -12.1 | 2.04 | 1.9 | -5.46 | -0.21
[14] | -11.3 | 3.32 | 6.19 | 3.83 | 4.17
